The values that follow come from patent US7141680B2, “Aromatic compounds possessing antifungal or antibacterial activity” (Genelabs Technologies, Inc., priority 2002, dated 2006).

Molecules are shown by their SMILES. Structures can show the parent of a compound that is named as a salt.

The test system of one assay is bacteria. Put plainly: Minimum inhibitory concentration (MIC) assay, bacteria. It counts as cell-based. Here is the method: (§1) The assays described below were used to measure the minimum inhibitory concentration (MIC) of a compound necessary to inhibit visible growth of the organism tested. These assays are adapted from NCCLS protocols M7-A4 and M27-A (NCCLS vol 17:9 and vol 17:2) as modified by Sandven, S., Clin. Micro. (1999) 37:12, p. 3856–3859. MIC values for Aspergillus species were determined using NCCLS protocol M38-P.
(§2) All compounds were dissolved in 100% DMSO to a stock concentration of 10 mM and used fresh stock compounds in powder form were kept frozen until needed and used freshly. When used for test purposes, compounds were diluted in the appropriate media depending on the organism being tested.
(§3) For yeast and aspergillus species, seven 1:2 serial dilutions of compound in appropriate media buffered with MOPS at pH 7.0 were prepared such that the final starting test compound concentrations were 44.4 μM for yeast and 50 μM aspergillus species. For bacteria, dilutions were made in growth media used for the particular bacteria being tested.
Five well-separated colonies from a 24 h Sabouraud Dextrose plate incubated at 35° C. were picked and resuspended into 2 mL of normal saline. The O.D.530 was read and the culture was adjusted to 0.5 McFarland units with normal saline. A 1:2000 dilution was made with RPMI 1640 media buffered with MOPS at pH 7.0 and 100 μL of this inoculum preparation was added to an equal volume of test compound-containing media. 25 μL of the redox indicator Alamar Blue (Biosource International) was added to each well and the plates were incubated for 48 h at 35° C. Wells having yeast growth changed color from blue to pink.
Inoculums are made in the same manner as yeast except all dilutions are made in normal saline, with a final dilution of 1:200 and an inoculum of 10 μL.

The test system of the next assay is Aspergillus species. Put plainly: Minimum inhibitory concentration (MIC) assay, filamentous fungi. It is filed as cell-based. The note with it: antifungal activity, lowest concentration at which 75% inhibition of growth is observed after 48 h. The protocol:
as §1, §2, §3
Inoculums are made by incubating Aspergillus species for 7 days at 35° C. on potato dextrose agar slants. Slants are then covered with 1.0 mL of 0.85% saline, one drop of Tween 20 is added and colonies are teased with a sterile transfer loop to create a suspension which is allowed to sit for 5 min so heavier particles can drop out. The upper suspension is separated and adjusted to an optical density of 0.09 to 0.11. The resulting suspension is diluted 1:50, which yields 2× the final inoculum needed. Micro dilution trays are prepared as with yeast and incubated for 48 h at 35° C. For our purposes the MIC is defined as the lowest compound concentration at which 75% inhibition of growth is observed after 48 h.

By MIC is commonly meant the smallest concentration in the dilution series that meets the test's criterion for growth inhibition. High values mean a need for much substance, low ones inhibition by little substance. Regarding `N=C(N)NCc1ccc(CNC(=O)c2cc3cc(NC(=O)c4ccc5[nH]c(C(=O)NCc6ccc(CNC(=N)N)cc6)cc5c4)ccc3[nH]2)cc1` [Compound 22, 1H-Indole-2,5-dicarboxylic acid 2-(4-guanidinomethyl-benzylamide) 5-{[2-(4-guanidinomethyl-benzylcarbamoyl)-1H-indol-5-yl]-amide}], the MIC with bacteria was no more than 45.5 µM; in the assay on Aspergillus species, no more than 50 µM.

Regarding `CC(=N)NCC1CCC(CNC(=O)c2cc3cc(NC(=O)c4ccc5[nH]c(C(=O)NCC6CCC(CNC(C)=N)CC6)cc5c4)ccc3[nH]2)CC1` (stereo not shown) [Compound 23, 1H-Indole-2,5-dicarboxylic acid 2-{[4-(acetimidoylamino-methyl)-cyclohexylmethyl]-amide} 5-[(2-{[4-(acetimidoylamino-methyl)-cyclohexylmethyl]-carbamoyl}-1H-indol-5-yl)-amide]], the results for the minimum inhibitory concentration (MIC) with bacteria and in the assay with Aspergillus species were no more than 45.5 µM and no more than 50 µM, respectively.

Take `N=C(N)NCC1CCCC(CNC(=O)c2cc3cc(NC(=O)c4ccc5[nH]c(C(=O)NCC6CCCC(CNC(=N)N)C6)cc5c4)ccc3[nH]2)C1` (stereo not shown) [Compound 24, 1H-Indole-2,5-dicarboxylic acid 2-[(3-guanidinomethyl-cyclohexylmethyl)-amide] 5-({2-[(3-guanidinomethyl-cyclohexylmethyl)-carbamoyl}-1H-indol-5-yl}-amide)]: the results for the MIC in the assay with bacteria and against Aspergillus species were no more than 45.5 µM and no more than 50 µM, respectively.

On to `N=C(N)NCc1cccc(CNC(=O)c2cc3cc(NC(=O)c4ccc5[nH]c(C(=O)NCc6cccc(CNC(=N)N)c6)cc5c4)ccc3[nH]2)c1` [Compound 25, 1H-Indole-2,5-dicarboxylic acid 2-(3-guanidinomethyl-benzylamide) 5-{[2-(3-guanidinomethyl-benzylcarbamoyl)-1H-indol-5-yl]-amide}], for which the values for the MIC with bacteria and against Aspergillus species were no more than 45.5 µM and no more than 50 µM, respectively.

Take `N=C(N)NCCNC(=O)c1ccc2[nH]c(C(=O)Nc3ccc4cc(C(=O)NCCNC(=N)N)[nH]c4c3)cc2c1` [Compound 47, 1H-Indole-2,5-dicarboxylic acid 5-[(2-guanidino-ethyl)-amide] 2-{[2-(2-guanidino-ethylcarbamoyl)-1H-indol-6-yl]-amide}]: the minimal inhibitory concentration (MIC) is no more than 45.5 µM with bacteria and no more than 50 µM in the assay with Aspergillus species.

In the case of `CNC(=N)NCCNC(=O)c1ccc2[nH]c(C(=O)Nc3ccc4cc(C(=O)NCCNC(=N)NC)[nH]c4c3)cc2c1` [Compound 48, 1H-Indole-2,5-dicarboxylic acid 5-{[2-(N′-methyl-guanidino)-ethyl]-amide} 2-({2-[2-(N′methyl-guanidino)-ethylcarbamoyl]-1H-indol-6-yl}-amide)], the figures for the minimum inhibitory concentration (MIC) in the assay on bacteria and in the assay with Aspergillus species were no more than 45.5 µM and no more than 50 µM, respectively.

Turning to `O=C(NCCNC1=NCCN1)c1ccc2[nH]c(C(=O)Nc3ccc4cc(C(=O)NCCNC5=NCCN5)[nH]c4c3)cc2c1` [Compound 50, 1H-Indole-2,5-dicarboxylic acid 5-{[2-(4,5-dihydro-1H-imidazol-2-ylamino)-ethyl]amide} 2-({2-[2-(4,5-dihydro-1H-imidazol-2-ylamino)-ethylcarbamoyl]-1H-indol-6-yl}-amide)], the minimum inhibitory concentration (MIC) against bacteria is no more than 45.5 µM; with Aspergillus species, no more than 50 µM.

Consider `N=C(N)NCCCNC(=O)c1ccc2[nH]c(C(=O)Nc3ccc4cc(C(=O)NCCNC(=N)N)[nH]c4c3)cc2c1` [Compound 52, 1H-Indole-2,5-dicarboxylic acid 2-{[2-(2-guanidinoethylcarbamoyl)-1H-indol-6-yl]amide} 5-[(3-guanidinopropyl)amide]dihydrochloride], for which the MIC was no more than 45.5 µM in the assay with bacteria and no more than 50 µM in the assay with Aspergillus species.

`C/N=C(\N)NCCCNC(=O)c1ccc2[nH]c(C(=O)Nc3ccc4cc(C(=O)NCCN/C(N)=N/C)[nH]c4c3)cc2c1` [Compound 53, 1H-Indole-2,5-dicarboxylic acid 2-({2-[2-(N′-methylguanidino)ethylcarbamoyl]-1H-indole-6-yl}amide) 5-{[3-(N′-methylguanidino)propyl]amide}dihydrochloride]: the MIC against bacteria is no more than 45.5 µM; against Aspergillus species, no more than 50 µM.

For `C/N=C(\NC)NCCCNC(=O)c1ccc2[nH]c(C(=O)Nc3ccc4cc(C(=O)NCCN/C(=N/C)NC)[nH]c4c3)cc2c1` [Compound 54, 1H-Indole-2,5-dicarboxylic acid 2-({2-[2-(N′,N″-dimethylguanidino)ethylcarbamoyl]-1H-indole-6-yl}amide) 5-{[3-(N′,N″-dimethylguanidino)propyl]amide}dihydrochloride], the MIC in the assay on bacteria was no more than 45.5 µM; in the assay on Aspergillus species, no more than 50 µM.

Consider `CNC(=N)NCCNC(=O)c1ccc2[nH]c(C(=O)Nc3ccc4[nH]c(C(=O)NCCNC(=N)NC)cc4c3)cc2c1` [Compound 55], for which the minimal inhibitory concentration (MIC) with bacteria was no more than 45.5 µM; in the assay on Aspergillus species, no more than 50 µM.

Turning to `O=C(NCCNC1=NCCN1)c1ccc2[nH]c(C(=O)Nc3ccc4[nH]c(C(=O)NCCNC5=NCCN5)cc4c3)cc2c1` [Compound 57, 1H-In dole-2,5-dicarboxylic acid 5-{[2-(4,5-dihydro-1H-imidazol-2-ylamino)ethyl]amide} 2-({2-[2-(4,5-dihydro-1H-imidazol-2-ylamino)ethylcarbamoyl]-1H-indole-5-yl}amide)dihydrochloride], the MIC against bacteria was no more than 45.5 µM; against Aspergillus species, no more than 50 µM.

Consider `N=C(N)NCCCNC(=O)c1ccc2[nH]c(C(=O)Nc3ccc4[nH]c(C(=O)NCCNC(=N)N)cc4c3)cc2c1` [Compound 58, 1H-Indole-2,5-dicarboxylic acid 2-{[2-(2-guanidinoethylcarbamoyl)-1H-indol-5-yl]amide} 5-[(3-guanidinopropyl)amide]dihydrochloride], for which the minimal inhibitory concentration (MIC) against bacteria is no more than 45.5 µM; in the assay with Aspergillus species, no more than 50 µM.

`C/N=C(\N)NCCCNC(=O)c1ccc2[nH]c(C(=O)Nc3ccc4[nH]c(C(=O)NCCN/C(N)=N/C)cc4c3)cc2c1` [Compound 59, 1H-Indole-2,5-dicarboxylic acid 2-({2-[2-(N′methylguanidino)ethylcarbamoyl]-1H-indol-5-yl}amide) 5-{[3-(N′methylguanidino)propyl]amide}hydrochloride]: the MIC is no more than 45.5 µM against bacteria and no more than 50 µM in the assay with Aspergillus species.

With `C/N=C(\NC)NCCCNC(=O)c1ccc2[nH]c(C(=O)Nc3ccc4[nH]c(C(=O)NCCN/C(=N/C)NC)cc4c3)cc2c1` [Compound 60, 1H-Indole-2,5-dicarboxylic acid 2-({2-[2-(N′,N″-dimethylguanidino)ethylcarbamoyl]-1H-indol-5-yl}amide) 5-{[3-(N′,N″-dimethylguanidino)propyl]amide}hydrochloride], the figures for the MIC with bacteria and in the assay on Aspergillus species were no more than 45.5 µM and no more than 50 µM, respectively.

For the molecule `N=C(N)CCNC(=O)c1cc2cc(NC(=O)c3cc4cc(C(=O)NCCNC(=N)N)ccc4[nH]3)ccc2[nH]1` [Compound 61, 1H-Indole-2,5-dicarboxylic acid 2-{[2-(2-carbamimidoylethylcarbamoyl)-1H-indol-5-yl]amide} 5-[(2-guanidinoethyl)amide]dihydrochloride], the minimal inhibitory concentration (MIC) against bacteria was no more than 45.5 µM; with Aspergillus species, no more than 50 µM.

Regarding `N=C(N)NCCCNC(=O)c1cc2ccc(NC(=O)c3cc4cc(C(=O)NCCNC(=N)N)ccc4[nH]3)cc2[nH]1` [Compound 62, 1H-Indole-2,5-dicarboxylic acid 5-[(2-guanidino-ethyl)-amide] 2-{[2-(3-guanidino-propylcarbamoyl)-1H-indol-6-yl]-amide}], the minimum inhibitory concentration (MIC) with bacteria is no more than 45.5 µM; against Aspergillus species it was no more than 50 µM.

Turning to `CNC(=N)NCCCNC(=O)c1cc2ccc(NC(=O)c3cc4cc(C(=O)NCCNC(=N)NC)ccc4[nH]3)cc2[nH]1` [Compound 63, 1H-Indole-2,5-dicarboxylic acid 5-{[2-(N′-methyl-guanidino)-ethyl]-amide} 2-({2-[3-(N′-methyl-guanidino)-propylcarbamoyl]-1H-indol-6-yl}-amide)], the MIC in the assay on bacteria was no more than 45.5 µM; in the assay with Aspergillus species it was no more than 50 µM.

With `C/N=C(\NC)NCCCNC(=O)c1cc2ccc(NC(=O)c3cc4cc(C(=O)NCCN/C(=N/C)NC)ccc4[nH]3)cc2[nH]1` [Compound 64], the minimal inhibitory concentration (MIC) is no more than 45.5 µM with bacteria and no more than 50 µM against Aspergillus species.

Turning to `N=C(N)NCCCNC(=O)c1cc2cc(NC(=O)c3cc4cc(C(=O)NCCNC(=N)N)ccc4[nH]3)ccc2[nH]1` [Compound 67, 1H-Indole-2,5-dicarboxylic acid 5-[(2-guanidino-ethyl)-amide] 2-{[2-(3-guanidino-propylcarbamoyl)-1H-indol-5-yl]-amide}], the values for the MIC against bacteria and in the assay on Aspergillus species were no more than 45.5 µM and no more than 50 µM, respectively.
